These compounds were tested against T1, Human PPARα (Homo sapiens, UniProt Q07869) (assay: Human PPARα Reporter Assay (luciferase)). Settings: human PPARα reporter cells, overnight incubation, antagonism; read-out: Luciferase IC50.
T1 construct: host or cells: proprietary non-human mammalian cells
T1 sequence (Q07869 1-468): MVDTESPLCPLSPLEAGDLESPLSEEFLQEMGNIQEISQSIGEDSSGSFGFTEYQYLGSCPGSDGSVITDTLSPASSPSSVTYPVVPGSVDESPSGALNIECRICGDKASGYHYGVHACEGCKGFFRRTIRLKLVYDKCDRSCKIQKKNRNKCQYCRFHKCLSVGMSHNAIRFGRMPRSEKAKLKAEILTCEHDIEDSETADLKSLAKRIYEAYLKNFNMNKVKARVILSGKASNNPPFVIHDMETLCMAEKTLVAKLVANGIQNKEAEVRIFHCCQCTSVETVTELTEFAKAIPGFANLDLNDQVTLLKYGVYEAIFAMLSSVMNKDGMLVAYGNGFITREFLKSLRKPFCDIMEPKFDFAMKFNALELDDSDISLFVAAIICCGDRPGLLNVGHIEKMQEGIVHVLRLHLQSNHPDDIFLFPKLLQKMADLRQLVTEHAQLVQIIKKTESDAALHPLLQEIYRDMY
Type: cell-based
Experimental: Human PPARα Reporter Assay
The screening of test compounds for agonist or antagonist activities against human PPARα receptors was performed using a commercial kit, Human PPARα Reporter Assay System (Indigo Biosciences, Cat. #IB00111).
This nuclear receptor assay system utilizes proprietary non-human mammalian cells engineered to provide constitutive, high-level expression of Human PPARα. Because these cells incorporate a PPARα-responsive luciferase reporter gene, quantifying expressed luciferase activity provides a sensitive surrogate measure of PPARα activity in the treated cells. The primary application of this reporter assay system is in the screening of test samples to quantify any functional activity, either agonist or antagonist, that they may exert against human PPARα.
Briefly, reporter cells are dispensed into wells of the assay plate and then immediately dosed with test compounds. Following an overnight incubation, the treatment media is discarded and Luciferase Detection Reagent (LDR) is added. The intensity of light emission from the ensuing luciferase reaction provides a sensitive measure that is directly proportional to the relative level of PPARα activation in the reporter cells.
Work on CCn1c(CCCc2ccc(-c3cnc(OC)c(C(=O)O)n3)cc2)nn(Cc2ccc(C(C)(C)C)cc2)c1=O [Example 162, 6-(4-(3-(1-(4-(tert-Butyl)benzyl)-4-ethyl-5-oxo-4,5-dihydro-1H-1,2,4-triazol-3-yl)propyl)phenyl)-3-methoxypyrazine-2-carboxylic acid] yielded an IC50 of 630 nM.
CCn1c(CCCc2ccc(-c3ccc(OC)c(NS(=O)(=O)c4ccccc4)c3)cc2)nn(Cc2ccc(C(C)(C)C)cc2)c1=O [Example 151, 1-{[4-(tert-Butyl)phenyl]methyl}-4-ethyl-3-[3-(4-{4-methoxy-3-[(phenylsulfonyl)amino]phenyl}phenyl)propyl]-1,2,4-triazolin-5-one] showed an IC50 of 61 nM.
Work on CCC(C(=O)O)c1cccc(-c2ccc(CCCc3nn(Cc4ccc(C(C)(C)C)cc4)c(=O)n3CC)cc2)c1 (stereo not drawn) [Example 46, 2-(3-{4-[3-(1-{[4-(tert-Butyl)phenyl]methyl}-4-ethyl-5-oxo-1,2,4-triazolin-3-yl)propyl]phenyl}phenyl)butanoic acid] yielded an IC50 of 699 nM.
CCn1c(CCCc2ccc(-c3ccc(OC)c(CC(=O)O)c3)cn2)nn(Cc2ccc(C(C)(C)C)cc2)c1=O [Example 198, 2-(5-(6-(3-(1-(4-(tert-Butyl)benzyl)-4-ethyl-5-oxo-4,5-dihydro-1H-1,2,4-triazol-3-yl)propyl)pyridin-3-yl)-2-methoxyphenyl)acetic acid] showed an IC50 of 623 nM.
CCn1c(CCC(F)(F)c2ccc(-c3ccc(C4(O)COC4)cc3)cc2)nn(Cc2ccc(C(C)(C)C)cc2)c1=O [Example 196, 1-(4-(tert-Butyl)benzyl)-3-(3,3-difluoro-3-(4′-(3-hydroxyoxetan-3-yl)-[1,1′-biphenyl]-4-yl)propyl)-4-ethyl-1H-1,2,4-triazol-5(4H)-one] showed an IC50 of 110 nM.
Compound CCn1c(CCCc2ccc(-c3cnc(NS(=O)(=O)c4ccccc4)cn3)cc2)nn(Cc2ccc(C(C)(C)C)cc2)c1=O [Example 118, N-(5-(4-(3-(1-(4-(tert-Butyl)benzyl)-4-ethyl-5-oxo-4,5-dihydro-1H-1,2,4-triazol-3-yl)propyl)phenyl)pyrazin-2-yl)benzenesulfonamide] has an IC50 of 446 nM.
CCn1c(CCCc2ccc(-c3cccc(N)c3)cc2)nn(Cc2ccc(C(C)(C)C)cc2)c1=O [Example 6, 3-(3-(3′-Amino-[1,1′-biphenyl]-4-yl)propyl)-1-(4-(tert-butyl)benzyl)-4-ethyl-1H-1,2,4-triazol-5(4H)-one] was tested, and the IC50 was 255 nM.
Work on CCn1c(CCCc2ccc(-c3cccc(C(Cc4ccccc4)C(=O)O)c3)cc2)nn(Cc2ccc(C(C)(C)C)cc2)c1=O (stereo not drawn) [Example 47, 2-(3-{4-[3-(1-{[4-(tert-Butyl)phenyl]methyl}-4-ethyl-5-oxo(1,2,4-triazolin-3-yl))propyl]phenyl}phenyl)-3-phenylpropanoic acid] yielded an IC50 of 685 nM.
In the case of CCn1c(CCCc2ccc(-c3ccc(C(F)(F)F)c(C(=O)O)c3)cc2)nn(Cc2ccc(C(C)(C)C)cc2)c1=O [Example 134, 4′-(3-(1-(4-(tert-Butyl)benzyl)-4-ethyl-5-oxo-4,5-dihydro-1H-1,2,4-triazol-3-yl)propyl)-4-(trifluoromethyl)-[1,1′-biphenyl]-3-carboxylic acid], the IC50 is reported as 109 nM.
CCn1c(CCCc2ccc(-c3ccc(OC)c(NS(=O)(=O)c4ccc(Cl)cc4)n3)cc2)nn(Cc2ccc(C(C)(C)C)cc2)c1=O [Example 92, 1-{[4-(tert-Butyl)phenyl]methyl}-3-{3-[4-(6-{[(4-chlorophenyl)sulfonyl]amino}-5-methoxy(2-pyridyl))phenyl]propyl}-4-ethyl-1,2,4-triazolin-5-one] gave an IC50 of 5 nM.
CCn1c(CCCc2ccc(-c3ccc(OC)c(N(C)S(=O)(=O)c4ccccc4)n3)cc2)nn(Cc2ccc(C(C)(C)C)cc2)c1=O [Example 110, 1-{[4-(tert-Butyl)phenyl]methyl}-4-ethyl-3-[3-(4-{5-methoxy-6-[N-methyl(phenylsulfonyl)amino](2-pyridyl)}phenyl)propyl]-1,2,4-triazolin-5-one] gave an IC50 of 534 nM.
CCn1c(CCCc2ccc(-c3cccc(NC(=O)Cc4ccccc4)n3)cc2)nn(Cc2ccc(C(C)(C)C)cc2)c1=O [Example 101, N-(6-{4-[3-(1-{[4-(tert-Butyl)phenyl]methyl}-4-ethyl-5-oxo(1,2,4-triazolin-3-yl))propyl]phenyl}(2-pyridyl))-2-phenylacetamide] was tested, and the IC50 was 402 nM.
CCn1c(CCCc2ccc(-c3cc(C)c(NS(=O)(=O)Cc4ccccc4)cn3)cc2)nn(Cc2ccc(C(C)(C)C)cc2)c1=O [Example 127, 1-{[4-(tert-Butyl)phenyl]methyl}-4-ethyl-3-{3-[4-(4-methyl-5-{[benzylsulfonyl]amino}(2-pyridyl))phenyl]propyl}-1,2,4-triazolin-5-one] gave an IC50 of 445 nM.
In the case of CCn1c(CCCc2ccc(-c3cccc(-c4nnn[nH]4)c3)cc2)nn(Cc2ccc(C(C)(C)C)cc2)c1=O [Example 29, 3-(3-(3′-(1H-Tetrazol-5-yl)-[1,1′-biphenyl]-4-yl)propyl)-1-(4-(tert-butyl)benzyl)-4-ethyl-1H-1,2,4-triazol-5(4H)-one], the IC50 is reported as 1190 nM.
Compound CCn1c(CCCc2ccc(-c3cc(NS(=O)(=O)c4ccccc4)ccn3)cc2)nn(Cc2ccc(C(C)(C)C)cc2)c1=O [Example 16, N-(2-(4-(3-(1-(4-(tert-Butyl)benzyl)-4-ethyl-5-oxo-4,5-dihydro-1H-1,2,4-triazol-3-yl)propyl)phenyl)pyridin-4-yl)benzenesulfonamide] has an IC50 of 90 nM.
For CCn1c(CCCc2ccc(-c3ccc(C(O)C(=O)NC4CC4)cc3)cc2)nn(Cc2ccc(C(C)(C)C)cc2)c1=O (stereo not drawn) [Example 51, 2-(4′-(3-(1-(4-(tert-Butyl)benzyl)-4-ethyl-5-oxo-4,5-dihydro-1H-1,2,4-triazol-3-yl)propyl)-[1,1′-biphenyl]-4-yl)-N-cyclopropyl-2-hydroxyacetamide], the IC50 was 292 nM.
Compound CCn1c(CCCc2ccc(-c3cccc(NC(=O)NS(=O)(=O)c4ccccc4)n3)cc2)nn(Cc2ccc(C(C)(C)C)cc2)c1=O [Example 154, N-((6-(4-(3-(1-(4-(tert-Butyl)benzyl)-4-ethyl-5-oxo-4,5-dihydro-1H-1,2,4-triazol-3-yl)propyl)phenyl)pyridin-2-yl)carbamoyl)benzenesulfonamide] has an IC50 of 241 nM.
CCOc1ccc(-c2ccc(CCCc3nn(Cc4ccc(C(C)(C)C)cc4)c(=O)n3CC)cc2)cc1C1(C#N)CC1 [Example 120, 1-(4′-(3-(1-(4-(tert-Butyl)benzyl)-4-ethyl-5-oxo-4,5-dihydro-1H-1,2,4-triazol-3-yl)propyl)-4-ethoxy-[1,1′-biphenyl]-3-yl)cyclopropanecarbonitrile] gave an IC50 of 604 nM.
CCn1c(CCCc2ccc(-c3ccc(C4(O)COC4)cc3)cc2)nn(Cc2ccc(C(C)(C)C)cc2)c1=O [Example 174, 1-(4-(tert-Butyl)benzyl)-4-ethyl-3-(3-(4′-(3-hydroxyoxetan-3-yl)-[1,1′-biphenyl]-4-yl)propyl)-1H-1,2,4-triazol-5(4H)-one] was tested, and the IC50 was 144 nM.
For CCn1c(CCCc2ccc(-c3ccc(OCC4CC4)c(CC(=O)O)c3)cc2)nn(Cc2ccc(C(C)(C)C)cc2)c1=O [Example 49, 2-(4′-(3-(1-(4-(tert-Butyl)benzyl)-4-ethyl-5-oxo-4,5-dihydro-1H-1,2,4-triazol-3-yl)propyl)-4-(cyclopropylmethoxy)-[1,1′-biphenyl]-3-yl)acetic acid], the IC50 was 69 nM.
CCn1c(CCCc2ccc(-c3ccc(OC)c(NS(=O)(=O)c4ccc(OC)cc4)n3)cc2)nn(Cc2ccc(C(C)(C)C)cc2)c1=O [Example 93, 1-{[4-(tert-Butyl)phenyl]methyl}-4-ethyl-3-{3-[4-(5-methoxy-6-{[(4-methoxyphenyl)sulfonyl]amino}(2-pyridyl))phenyl]propyl}-1,2,4-triazolin-5-one] showed an IC50 of 3 nM.
In the case of CCn1c(CCCc2ccc(-c3ccc(NS(=O)(=O)c4ccc5c(c4)CCN5C(C)=O)cn3)cc2)nn(Cc2ccc(C(C)(C)C)cc2)c1=O [Example 75, 1-Acetyl-5-{[(6-{4-[3-(1-{[4-(tert-butyl)phenyl]methyl}-4-ethyl-5-oxo(1,2,4-triazolin-3-yl))propyl]phenyl}(3-pyridyl))amino]sulfonyl}indoline], the IC50 is reported as 207 nM.
With CCn1c(CCCc2ccc(-c3csc(C4(O)COC4)n3)cc2)nn(Cc2ccc(C(C)(C)C)cc2)c1=O [Example 203, 1-(4-(tert-Butyl)benzyl)-4-ethyl-3-(3-(4-(2-(3-hydroxyoxetan-3-yl)thiazol-4-yl)phenyl)propyl)-1H-1,2,4-triazol-5(4H)-one] the IC50 was 873 nM.
CCn1c(CCCc2ccc(-c3cc(OC)c(N)cn3)cc2)nn(Cc2ccc(C(C)(C)C)cc2)c1=O [Example 111, 3-{3-[4-(5-Amino-4-methoxy(2-pyridyl))phenyl]propyl}-1-{[4-(tert-butyl)phenyl]methyl}-4-ethyl-1,2,4-triazolin-5-one] was tested, and the IC50 was 641 nM.
